Measurements published in patent US8492346B2, “Methods of use of epsilon inhibitor compounds for the attenuation of pain” (KAI Pharmaceuticals, Inc., priority 2007, dated 2013).
“Also recorded” adds a separate entry of the source. Read-outs that look alike come from different tables or passages of the source. Marks after values point to notes of the source that are not given here.

Tests used:
[1] = Dog toxicokinetics and tissue levels, 5-day subcutaneous infusion; conditions: for Tissue level, Dose Site Muscle, Mean / Tissue level, Dose Site Skin, Mean / Tissue level, Kidney, Mean / Tissue level, Liver, Mean / Tissue level, Lung, Mean / Tissue level, Peripheral Nerve, Mean / Tissue level, Skeletal Muscle, Mean / Tissue level, Spinal Cord, Mean / Tissue level, Brain, Mean: 25 mg/kg/day sc infusion five days
Source text: The pharmacokinetics of KAI-1678 are being studied in rats administered the compound as an intravenous bolus and infusion or as a subcutaneous bolus and infusion. The toxicokinetics of KAI-1678 are being studied in dogs administered the compound as a subcutaneous infusion as part of the toxicity studies. In these studies, plasma levels of KAI-1678 have been determined using a sandwich-based ELISA assay developed at KAI Pharmaceuticals. The lower limit of quantitation of this assay is approximately 0.3 ng/mL. A similar assay has been developed to measure tissue levels of KAI-1678.
As part of a range-finding toxicology study, 6 beagle dogs (one per sex per group) were administered continuous subcutaneous infusions of KAI-1678 for 5 days at dose levels of 3, 8 and 25 mg/kg/day. Blood samples were collected at various times on Day 1 (start of infusion) and Day 6 (after the end of infusion).
As part of this study, tissues were harvested from a subset of the animals at the end of dosing.

[2] = Rat pharmacokinetics, plasma levels by sandwich-based ELISA; type: in vivo
[3] = test system: L5 nerve transection-induced allodynia and hyperalgesia; assay: Chung (L5 spinal nerve transection) neuropathic pain model; type: in vivo, rat
Source text: The Chung (L5 nerve transection) is a well-known model for chronic (neuropathic) pain. […]
The activity of KAI-1678 has been evaluated in the L5 transection model or modified Chung model, is a mononeuropathic pain model in which the L5 spinal nerve is surgically transected, resulting in rapid development of sustained pain. The activity of KAI-1678 in this model is described below.
The rat L5 spinal nerve transection model has been used to evaluate the response to modulators of neuropathic pain. In the studies described below surgical transaction of the L5 spinal nerve was used to elicit mechanical allodynia, mechanical hyperalgesia and thermal hyperalgesia that characterize neuropathic pain. In this model, the neuropathic effects develop within a day and are reported to last for 1-2 months.
Mechanical allodynia and mechanical hyperalgesia are measured using calibrated von Frey filaments to elicit a flexion withdrawal response (paw withdrawal response) by pressing them against the plantar surface of the hindpaw on the same side as the nerve transection. The 2 g, 6 g and 10 g von Frey filaments are used to assess allodynia since these stimuli are normally innocuous to naïve animals. The 15 g, 26 g and 60 g filaments are used to assess algesia (response to noxious stimulus) since these stimuli elicit paw withdrawals in naïve animals and are considered to represent painful stimuli.
The existence of the disease state following nerve transection is confirmed based on tests performed with the 2 g and the 10 g filaments.
Once the disease state is confirmed, evaluation of the extent of mechanical allodynia or hyperalgesia is determined by observing the number of paw withdrawals in responsse to 5 tests with each of the von Frey filaments. Results are typically expressed either as the total number of paw withdrawals for the allodynic filaments (2 g, 6 g and 10 g for a total of 15 tests) or the algesic filaments (15 g, 26 g and 60 g for a total of 15 tests), or as the lowest filament to which the animals in a group have an average positive response defined as ≧3 withdrawals out of 5 tests with a particular filament. […]
Rats given an L5 spinal nerve transection were treated with a bolus subcutaneous dose of KAI-1678 ranging from 0.00025-0.25 mcg/rat (˜0.001-1 mcg/kg) on day 7 post-transection. The degree of mechanical allodynia and hyperalgesia was evaluated based on the number of paw withdrawals (out of 30) in response to 6 different von Frey filaments before and up to 3 hours after administration of the compound.

[4] = Rat pharmacokinetics, plasma levels by sandwich-based ELISA; type: in vivo; remark: listed apart in the source
Description: To initially characterize the pharmacokinetics of KAI-1678 in rats, male rats were administered KAI-1678 at doses of 100 and 1,000 mcg/rat (˜300 and ˜3,000 mcg/kg) as an IV bolus injection via the tail vein. Blood samples were withdrawn periodically for up to two hours following the injection for plasma analysis of KAI-1678 levels. There were three and two animals in the 100 and 1,000 mcg dose groups, respectively, and there was consistency in KAI-1678 plasma concentrations between animals in each dose group.
In the experiment shown in FIG. 29, male rats were administered KAI-1678 as a subcutaneous bolus injection (200 microL into the left hindleg) at doses of 25 or 250 mcg/animal (approximately 80 and 800 mcg/kg, respectively). Blood samples were taken at various time points over two hours after administration of the compound to determine plasma concentrations of KAI-1678. There were three and four animals in the 25 and 250 mcg/animal dose groups, respectively, and the KAI-1678 plasma concentration measurements were consistent between animals in each dose group. Cmax occurred within 10 minutes after injection and increased in a dose-proportional manner over the two doses tested.
In the experiment shown in FIG. 30, male rats were administered KAI-1678 as a continuous subcutaneous infusion for 2 hours at doses of 19 and 190 mcg/kg/hr. Blood samples were taken at various time points throughout the infusion and for 1 hour after the end of infusion to determine plasma concentrations of KAI-1678. There were two animals per dose group and the plasma KAI-1678 concentration measurements were consistent between animals in each dose group. At the lower dose rate (19 mcg/kg/hr), plasma concentrations reached steady state (˜3 ng/mL) by 60 minutes and remained relatively constant throughout the rest of the infusion. […] At both dose rates, plasma concentrations of KAI-1678 dropped quickly after the end of infusion although compound was still detectable at both dose levels one hour after the end of infusion.

[5] = test system: spared nerve pain; assay: Single spared nerve model; type: in vivo; conditions: preliminary, doses similar to carrageenan model
Source text: (§1) While experiments with these models are continuing, additional work is being done in other pain models.

[6] = test system: incision pain; assay: Brennan incision model; type: in vivo; conditions: preliminary, doses similar to carrageenan model
Source text: as §1

[7] = subcutaneous bolus 0.1 and 1 mcg/kg

For Ac-EAVSLKPTGGYGRKKRRQRRR-NH2 [KAI-1678], the “Tissue level, Dose Site Muscle, Mean” value ([1]; Animal 4001, male) was 111 ng KAI-1678/g tissue, the “Tissue level, Dose Site Skin, Mean” value ([1]; Animal 4001, male) was 1139 ng KAI-1678/g tissue and the “Tissue level, Kidney, Mean” value ([1]; Animal 4001, male) was 689 ng KAI-1678/g tissue. The “Tissue level, Liver, Mean” value ([1]; Animal 4001, male) was 224 ng KAI-1678/g tissue, the “Tissue level, Lung, Mean” value ([1]; Animal 4001, male) was 254 ng KAI-1678/g tissue and the “Tissue level, Peripheral Nerve, Mean” value ([1]; Animal 4001, male) was 429 ng KAI-1678/g tissue. The “Tissue level, Skeletal Muscle, Mean” value ([1]; Animal 4001, male) was 133 ng KAI-1678/g tissue, the “Tissue level, Spinal Cord, Mean” value ([1]; Animal 4001, male) was 11 ng KAI-1678/g tissue and the “Tissue level, Brain, Mean” value ([1]; Animal 4001, male, includes a data point below limit of quantitation) was 6* ng KAI-1678/g tissue. The “Tissue level, Brain, Mean” value ([1]; Animal 4501, female) was 7 ng KAI-1678/g tissue, the “Tissue level, Dose Site Muscle, Mean” value ([1]; Animal 4501, female) was 1003 ng KAI-1678/g tissue and the “Tissue level, Dose Site Skin, Mean” value ([1]; Animal 4501, female) was 6165 ng KAI-1678/g tissue. The “Tissue level, Kidney, Mean” value ([1]; Animal 4501, female) was 3054 ng KAI-1678/g tissue, the “Tissue level, Liver, Mean” value ([1]; Animal 4501, female) was 1505 ng KAI-1678/g tissue and the “Tissue level, Lung, Mean” value ([1]; Animal 4501, female) was 1364 ng KAI-1678/g tissue. The “Tissue level, Peripheral Nerve, Mean” value ([1]; Animal 4501, female) was 155 ng KAI-1678/g tissue, the “Tissue level, Skeletal Muscle, Mean” value ([1]; Animal 4501, female) was 33 ng KAI-1678/g tissue and the “Tissue level, Spinal Cord, Mean” value ([1]; Animal 4501, female) was 140 ng KAI-1678/g tissue. For the same substance, the “Clearance from systemic circulation / plasma level after end of infusion” value ([1]; subcutaneous infusion over 5 days, 3, 8 and 25 mg/kg/day) was “rapidly cleared from the systemic circulation; also recorded: declined quickly upon cessation of infusion”, the “Levels in brain and spinal cord” value ([1]; subcutaneous infusion over 5 days, end of infusion) was “consistently low” and the “Steady state plasma concentration” value ([2]; 2-hr intravenous infusion at 50 mcg/kg/hr) was 10 to 20 ng/mL. For the same substance, the half-life ([2]; rat, in vivo, iv, intravenous infusion, read-out: Terminal half-life) was about 25 min, the “Mechanical allodynia, 10 g filament” value ([3]; minipump 0.025 and 0.25 mcg/day, lasted until Day 7 post-pump implantation) was “nearly complete reversal of mechanical allodynia” and the “Duration of anti-hyperalgesic effect” value [3, 7] was “at least 2 hours”. The “Mechanical hyperalgesia, 15 g, 26 g and 60 g von Frey filaments” value [3, 7] was “completely reverses mechanical hyperalgesia”, the “Doses giving dose-dependent decrease in mechanical allodynia and mechanical hyperalgesia” value ([3]; subcutaneous bolus, day 7 post-transection, FIG. 25) was at least 0.01 µg/kg and the “Potency relative to carrageenan-induced inflammatory pain model” value ([3]; subcutaneous infusion) was “about 1000 fold”. For the same substance, the “Dose rates substantially reducing mechanical allodynia” value ([3]; subcutaneous osmotic minipump, 10 g filament, FIG. 26) was at least 0.0025 µg/day, the “Clearance from systemic circulation” value ([4]; intravenous bolus) was “rapidly cleared from systemic circulation” and the level at 1 h ([4]; male, rat, plasma, sc, 19 ug/kg/hr, subcutaneous infusion 19 mcg/kg/hr, by 60 minutes, read-out: Steady state plasma concentration) was about 3 ng/mL. It also gave a Tmax ([4]; male, rat, plasma, sc, subcutaneous bolus, read-out: Time of maximum plasma concentration (converted)) of about 10 min, a half-life ([4]; rat, in vivo, iv, 300 ug/kg, IV bolus ~300 mcg/kg, preliminary, read-out: Terminal half-life) of about 38 min and a half-life ([4]; rat, in vivo, iv, IV bolus ~300 mcg/kg, preliminary, read-out: Terminal half-life) of about 38 min. It also gave a half-life ([4]; rat, in vivo, iv, IV bolus ~3,000 mcg/kg, preliminary, read-out: Terminal half-life) of about 66 min, a half-life ([4]; rat, in vivo, iv, intravenous bolus, read-out: Terminal half-life) of about 50 min and a half-life ([4]; rat, in vivo, sc, 800 ug/kg, subcutaneous bolus approximately 80 and 800 mcg/kg, read-out: Terminal half-life) of about 35 min. The half-life ([4]; rat, in vivo, sc, subcutaneous infusion, read-out: Half-life after end of infusion) was about 30 min, the Cmax ([4]; rat, in vivo, sc, subcutaneous infusion 190 mcg/kg/hr for 2 hours) was about 60 ng/mL and the bioavailability ([4]; rat, in vivo, sc, subcutaneous route vs intravenous bolus) was about 10%. The “Dose proportionality of exposure” value ([4]; subcutaneous bolus (80, 800 mcg/kg) or infusion (19, 190 mcg/kg/hr)) was “dose-proportional increases in exposures”, the “Half-life after end of infusion” value ([4]; subcutaneous infusion) was about 45 min and the “Time of maximum plasma concentration” value ([4]; subcutaneous infusion) was about 1 h. For the same substance, the “Activity in single spared nerve model” value [5] was “also active in these models” and the “Activity in Brennan incision model” value [6] was “also active in these models”.
